Measured values from patent US9763960B2, “Wafer comprising steroid hormones” (LTS Lohmann Theraple-Systeme AG, priority 2005, dated 2017).

Experiment: i.v. administration of 0.5 mg MENT (reference for bioavailability)
Format: in vivo
Settings: after i.v. admin. of 0.5 mg MENT

## C[C@@H]1CC2=CC(=O)CC[C@@H]2[C@H]2CC[C@]3(C)[C@@H](O)CC[C@H]3[C@@H]21 [MENT, 7α-methyl-19-nortestosterone]
  AUC(0-tlast) geomean dose-normalized: 4.98 ng·h/mL
